Measured values taken from US12245593B2, “Agricultural products and related methods” (priority 2017, dated 2025).

System: glyphosate-tolerant Palmer Amaranth (Amaranthus palmeri)
Assay type: in vivo
Conditions: glyphosate 1.27 kg/ha; Composition C 1 liter/ha; two weeks after spraying
Method: Various plant treatment products comprising (i) select plant treatment components (e.g., pesticides, fungicides, herbicides) and (ii) one or more microbial fermentation product formulations (Composition A, B, C, and combinations) were tested on (1) rice (Oryza sativa) infected by Sheath Blight Rhizoctonia solani, (2) soybean (Glycine max) infected by Soybean Rust (Phakopsora pachyrhizi), (3) wheat (Triticum aestivum) infected by Stripe Rust (Puccinia striiformis), (4) corn (Zea mays) infected by Gray Leaf Spot (Cercospora zeae-maydis), (5) creeping bentgrass (Agrostis stolonifera) infected by dollar spot (Sclerotina homoeocarpa), and (6) glyphosate-tolerant Palmer Amaranth (Amaranthus palmeri) weed, and compared to controls, including plant treatment component(s) alone.
To test the effects of the inventive plant treatment product on weed survival in herbicide-tolerant Palmer Amaranth (Amaranthus palmeri) plants, the plant treatment product (Composition C+herbicide) or herbicide component (alone) were applied to weeds, in greenhouse conditions. […] The measurements of dry shoot mass and dry root mass were taken two weeks after spraying. […] Thus, the inventive plant treatment product can enhance herbicide susceptibility in herbicide-tolerant plants.

O=C(O)CNCP(=O)(O)O [Herbicide, glyphosate]
Palmer Amaranth root dry weight per plant in greenhouse conditions: 0.768 | Palmer Amaranth root dry weight, change versus Untreated Control: −40.9% | Palmer Amaranth root fresh weight per plant in greenhouse conditions: 4.70 | Palmer Amaranth root fresh weight, change versus Untreated Control: −51.3% | Palmer Amaranth shoot dry weight per plant in greenhouse conditions: 5.31 | Palmer Amaranth shoot dry weight, change versus Untreated Control: −7.01% | Palmer Amaranth shoot fresh weight per plant in greenhouse conditions: 15.0 | Palmer Amaranth shoot fresh weight, change versus Untreated Control: −20.6%
